Measurements from US8299097B2, “Methods for treating inflammatory disorders” (The Brigham and Women's Hospital, Inc., priority 2008, dated 2012).

Tests used:
LAD2 cells = assay: Calcium flux of LAD2 cells stimulated with LTD4 or LTE4; type: cell-based, human; details: agonists 500 nM; MK571 1 μM, 2-MesAMP 100 μM
Method: FIG. 2. Requirement for P2Y12 receptors in LTE4-mediated LAD2 cell activation. 2A. Calcium flux of LAD2 cells stimulated with the indicated agonists (500 nM) in the presence or absence of the P2Y12 receptor-selective antagonist 2-MeSAMP (100 μM). […] 2B. […] Cells sensitized overnight with IgE and challenged with anti-IgE were used as the positive control. 2C. […] Results in 2B and 2C are mean±SEM from three independent experiments each. 2D. Effect of shRNA-mediated knockdown of P2Y12 receptor mRNA expression by LAD2 cells.
Pre-treatment of the LAD2 cells with 2-MesAMP blocked the LTE4-mediated increment in MIP-1β production by >50% (FIG. 2B). […] To exclude potential off-target effects of the inhibitors, samples of LAD2 cells were transfected with lentiviruses encoding a P2Y12 sequence-specific shRNA, a CysLT1R-specific shRNA, or an empty vector control before stimulation. […] LTE4- and LTD4-dependent production of PGD2 were abrogated by the knockdowns of P2Y12 and CysLT1R, respectively (FIG. 2C, bottom). Neither GPCR knockdown altered MIP-1β generation or PGD2 production in response to IgE-anti-IgE (FIG. 2C). LTE4-mediated MIP-1β generation (FIG. 9A) and ERK activation (FIG. 9B) were not altered by treatment of LAD2 cells with apyrase to degrade extracellular ADP.
LAD2 cells (0.5-1×10^6/sample) were washed and labeled with fura 2-AM for 30 min at 37° C. […]

Cysltr1/Cysltr2^−/− mice = assay: LTE4 amplification of pulmonary inflammation in mice lacking both CysLT1R and CysLT2R; type: in vivo, mouse
Method: (§1) FIG. 4. […] 4A. […] Clopidogrel (500 μg/ml) was added to the drinking water of the indicated groups of mice for 72 h before the first intranasal dose of LTs, and was maintained throughout the treatment. Results are mean±SEM from at least 9 mice in each group. The experiments were repeated three times with similar results. 4B. PAS stains (left column) from representative mice in the indicated groups showing the effect of clopidigrel on goblet cell metaplasia. Higher magnification images of H & E stains (right) from the same animals showing cellular characteristics of the bronchovascular infiltrates. 4C. Effect of clopidogrel administration on the steady-state expression of IL-13 and MUC5AC mRNA as determined by real-time PCR of whole lung RNA extracted 24 h after the last OVA challenge of the indicated groups. Data are mean±SEM from 4-5 mice/group from a single experiment. Results in a second experiment were similar 4D-4F. […] 4D. Total cell numbers (top), percentages of eosinophils (middle), and total numbers of eosinophils in BAL fluid recovered 24 h after the last challenge with OVA. 4E. Goblet cell metaplasia (top) and representative PAS stains (bottom) from wild-type and p2ry12^−/− mice subjected to the same protocol. 4E. Inflammation scores from the same mice. Data in 4D-4F are from 4 mice per group. […] Quantitative assessment of bronchovascular inflammation as determined by H & E stains. […]

p2ry12^−/− mice = assay: LTE4 amplification of pulmonary inflammation in p2ry12^−/− mice and C57BL/6 controls; type: in vivo, mouse
Method: as §1

human blood platelets = assay: Platelet activation, cytofluorographic detection of P-selectin (CD62P); type: cell-based; details: ADP 100 μM or LTE4 1 μM, 10 min
Method: FIG. 6. […] Each antibody (Ab) was diluted in 50 μl of sterile saline. […] 6A. PAS stains of the lungs of representative mice treated with isotype control (top) or with an anti-CD42 platelet-depleting antibody (bottom). 6B. Inflammation (top) and goblet cell metaplasia (bottom) in the lungs of mice treated with the indicated LT and antibody. A cohort of mice was treated with clopidogrel as indicated. Results in 6B are from a single experiment with 5 mice per group. […] 6C. […] Results are from a single experiment performed three times on different donors.
Platelets accumulate in the lungs of asthmatic individuals (Jeffery, P. K., et al. 1989. Am. Rev. Respir. Dis. 140:1745-1753), and are also recruited to the lungs of ovalbumin sensitized and challenged mice by an IgE-dependent mechanism (Pitchford, S. C., et al. 2008. Am. J. Respir. Crit. Care Med. 177:604-612).

| SMILES | effect on LTD4- or LTE4-mediated calcium flux (LAD2 cells) | potentiation of OVA-induced BAL fluid eosinophilia, goblet cell metaplasia and inflammation (Cysltr1/Cysltr2^−/− mice) | potentiation of BAL fluid eosinophilia, goblet cell metaplasia and bronchovascular infiltration (p2ry12^−/− mice; WT C57BL/6 controls) | potentiation of BAL fluid eosinophilia, goblet cell metaplasia and bronchovascular infiltration (p2ry12^−/− mice; p2ry12^−/− mice) | CD62P expression by platelets (human blood platelets) |
| --- | --- | --- | --- | --- | --- |
| CN(C)C(=O)CCSC(SCCC(=O)O)c1cccc(/C=C/c2ccc3ccc(Cl)cc3n2)c1 (centres unmarked) [MK571] | blocked calcium responses | – | – | – | – |
| CCCCC/C=C\C\C=C/C=C/C=C/[C@@H](SC[C@H](N)C(=O)O)[C@@H](O)CCCC(=O)O [LTE4] | – | completely intact | potentiated | severely blunted | no CD62P expression was detected |
